These results are taken from PMC8778818, “Synthesis, Structural Characterization and Anticancer Activity of New 5-Trifluoromethyl-2-thioxo-thiazolo[4,5-d]pyrimidine Derivatives” (Pharmaceuticals, 2022).

The subject of one assay is U251. The assay can be described thus: NCI-60 screen, CNS Cancer U251. In kind it is cell-based, human. The conditions noted are these: U251, 10^−5 M one dose.
For another assay, the system named is MALME-3M. The assay can be described thus: NCI-60 screen, Melanoma MALME-3M. In kind it is cell-based, human. The conditions noted are these: 10^−5 M one dose.
In a further assay the test system is DU145. The assay can be described thus: MTT cell viability assay, DU145. In kind it is cell-based, human. The note with it: Homo sapiens, DU-145; DU145, MTT, 72 h, mean ± SD. The procedure: (§1) Twelve compounds (2a-e, 3a-d and 4a-c) at a concentration range of 50–5000 μM were tested for their antiproliferative potential against four human cancer cell lines (A375—melanotic melanoma, C32—amelanotic melanoma, DU145—prostate cancer androgen-independent, MCF-7/WT—breast adenocarcinoma) and two normal cell lines: Chinese Hamster Ovary (CHO-K1) and immortalized human keratinocytes from histologically normal skin (HaCaT).
(§2) To determine the antiproliferative activity of newly synthesized compounds, the following cell lines were used: human melanotic melanoma cell line (A375), human amelanotic melanoma cell line (C32), human breast adenocarcinoma cell line (MCF-7/WT), human prostate cancer androgen-independent (DU145) and two normal cell lines: hamster ovarian (CHO-K1) and immortalized human keratinocytes from histologically normal skin (HaCaT). The cells were obtained from the cell line bank of the Department of Molecular and Cellular Biology, Wroclaw Medical University. A375, C32, MCF-7/WT, DU145 and HaCaT cells were grown in a monolayer cultured in Dulbecco’s Modified Eagle’s Medium (DMEM, Sigma-Aldrich, Poznań, Poland), supplemented with 10% of fetal bovine serum (FBS, Gibco, Paisley, UK) and 1% of antibiotics (penicillin/streptomycin, Sigma-Aldrich) and CHO-K1 were grown in HAM’s F-12 medium (Sigma-Aldrich), supplemented with 10% fetal bovine serum (FBS, Gibco) and 1% of antibiotics (penicillin/streptomycin, Sigma-Aldrich). Cell lines were cultured in the polystyrene flasks 25 or 75 cm^2 (Thermo Fisher Scientific, Waltham, MA, USA), which were stored in 37 °C and 5% CO2 in a humidified 95% atmosphere (SteriCult, Thermo Scientific, Alab). The cell medium was exchanged twice a week. The exponentially growing cells were used throughout the experiments. The cells were rinsed with phosphate-buffered saline (PBS, Sigma-Aldrich) and trypsinized by Trypsin-EDTA 0.25% solution (Sigma-Aldrich).
(§3) The influence of the compounds was performed in a monolayer culture on cancer and normal cells. Compounds were initially dissolved in DMSO; further dilutions of the compound were performed in Dulbecco’s Modified Eagle’s Medium supplemented with 10% FBS. Compounds were tested in a 50–5000 µM concentration range. In the in vitro experiments, the concentrations of DMSO in the final solution of the compounds were used 0.05%; 0.1%; 0.5%; 1%, respectively.
(§4) Cell viability was determined using the MTT colorimetric assay. All cell lines were seeded into 96-well plates to a density of 3 × 10^4 cells/well. After 24 h, the culture supernatants were removed and appropriate dilutions of compounds in the culture medium (200 µL/well) were added to the cells’ monolayer cultures and incubated for an additional 72 h. After 72 h of exposition to the compounds and the removal of the culture medium, cell viability was determined by reducing the yellow dye 3-(4,5-dimethyl-2-thiazol)-2,5-diphenyl-2H-tetrazolium bromide (MTT assay, Sigma Saint Louis, MO, USA; In Vitro Toxicology Assay) to a blue formazan product. The absorbance of the resulting solutions in three duplicate experiments was measured at the wavelength of 560 nm in a microplate reader (EnSpire, Perkin Elmer, Kraków, Poland). MTT assay is a colorimetric method that estimates the rate of metabolism in viable cells. Absorbance is directly proportional to the number of viable cells. All the experiments were performed three times and the mean absorbance values were calculated. The methodology for the evaluation of the growth of human cancer and normal cells was described previously. The cell viability in each group was expressed as a percentage of control (untreated) cells.
On the technique in general: Tetrazolium dyes change colour on reduction, which living cells bring about.

A further assay relates to K-562. As to the kind of experiment: NCI-60 screen, Leukemia K-562. In kind it is cell-based, human. The note with it: K-562, 10^−5 M one dose.
The test system of another assay is SK-MEL-28. The assay can be described thus: NCI-60 screen, Melanoma SK-MEL-28. In kind it is cell-based. The note with it: SK-MEL-28, 10^−5 M one dose.
The subject of another assay is OVCAR-5. As to the kind of experiment: NCI-60 screen, Ovarian Cancer OVCAR-5. In kind it is cell-based, human. The conditions noted are these: OVCAR-5, 10^−5 M one dose.
The subject of another assay is LOX IMVI. The assay can be described thus: NCI-60 screen, Melanoma LOX IMVI. In kind it is cell-based, human. The conditions noted are these: 10^−5 M one dose.
A further assay relates to T-47D. The assay can be described thus: NCI-60 screen, Breast Cancer T-47D. In kind it is cell-based. The conditions noted are these: T-47D, 10^−5 M one dose.
In a further assay the test system is A375. As to the kind of experiment: MTT cell viability assay, A375. In kind it is cell-based, human. The note with it: Homo sapiens, A-375, 72 h, A375, MTT, mean ± SD. The procedure: as §1, §2, §3, §4
The test system of another assay is UO-31. The assay can be described thus: NCI-60 screen, Renal Cancer UO-31. In kind it is cell-based. The conditions noted are these: UO-31, 10^−5 M one dose.
A further assay has as its system HCT-116. As to the kind of experiment: NCI-60 screen, Colon Cancer HCT-116. In kind it is cell-based, human. The note with it: HCT-116, 10^−5 M one dose.
The subject of another assay is A498. The assay can be described thus: NCI-60 screen, Renal Cancer A498. The conditions noted are these: A498, 10^−5 M one dose. In kind it is cell-based, human.
The subject of another assay is NCI-H522. As to the kind of experiment: NCI-60 screen, Non-Small Cell Lung Cancer NCI-H522. In kind it is cell-based, human. The conditions noted are these: NCI-H522, 10^−5 M one dose.
In assay [1] the test system is A375, C32, DU145, MCF-7/WT, CHO-K1 and HaCaT cell lines. The assay can be described thus: MTT cell viability assay, all six cell lines. In kind it is cell-based. The conditions noted are these: mean over the six cell lines; read-out: Mean A: the mean IC50 for the given compound. The procedure:
as §1, §2, §3, §4

A further assay deals with TK-10. As to the kind of experiment: NCI-60 screen, Renal Cancer TK-10. In kind it is cell-based, human. The note with it: TK-10, 10^−5 M one dose.
The next assay deals with SF-539. The assay can be described thus: NCI-60 screen, CNS Cancer SF-539. The conditions noted are these: SF-539, 10^−5 M one dose. In kind it is cell-based, human.
The subject of a further assay is CHO-K1. The assay can be described thus: MTT cell viability assay, CHO-K1. In kind it is cell-based, Chinese Hamster. The note with it: Cricetulus griseus; CHO-K1 normal cells, MTT, 72 h, mean ± SD. The procedure: as §1, §2, §3, §4
The next assay has as its system A549/ATCC. The assay can be described thus: NCI-60 screen, Non-Small Cell Lung Cancer A549/ATCC. The conditions noted are these: 10^−5 M one dose. In kind it is cell-based, human.
For the next assay, the system named is DU-145. As to the kind of experiment: NCI-60 screen, Prostate C. DU-145. In kind it is cell-based. The note with it: DU-145, 10^−5 M one dose.
In another assay the test system is HCC-2998. The assay can be described thus: NCI-60 screen, Colon Cancer HCC-2998. The note with it: HCC-2998, 10^−5 M one dose. In kind it is cell-based, human.
A further assay deals with HL-60(TB). As to the kind of experiment: NCI-60 screen, Leukemia HL-60(TB). The note with it: 10^−5 M one dose. In kind it is cell-based, human.

For the compound `O=c1[nH]c(C(F)(F)F)nc2c1sc(=S)n2-c1ccccc1` [Compound 2b, 3-phenyl-2-thioxo-5-(trifluoromethyl)-2,3-dihydro[1, 3]thiazolo[4,5-d]pyrimidin-7(6H)-one], the “Growth of Cells (%)” value was 101.63% in the assay on U251; 121.70% in the assay on MALME-3M; 115.47% with K-562; 102.86% in the assay on SK-MEL-28; 101.99% in the assay with OVCAR-5; 84.58% in the assay on LOX IMVI. The “Growth of Cells (%)” value in the assay with T-47D is given as 108.41%; with UO-31, 91.22%; in the assay with HCT-116, 102.27%; in the assay on A498 it was 90.58%; in the assay with NCI-H522, 90.35%; in the assay on TK-10 it was 130.06%. Besides, the “Growth of Cells (%)” value was 114.10% with SF-539; 103.88% in the assay with A549/ATCC; 109.40% in the assay with DU-145; 116.48% with HCC-2998; 149.39% in the assay with HL-60(TB). For the same compound, the IC50 was determined as 356 ± 14.7 µM in the assay with DU145, 367 ± 15.1 µM in the assay with A375, 468 µM in assay [1] and 319 ± 13.1 µM in the assay with CHO-K1.

On to `CCNc1nc(C(F)(F)F)nc2c1sc(=S)n2-c1ccccc1` [Compound 4b, 7-(ethylamino)-3-phenyl-5-(trifluoromethyl)[1, 3]thiazolo[4,5-d]pyrimidine-2(3H)-thione], for which the “Growth of Cells (%)” value in the assay with U251 came to 93.27%; in the assay on MALME-3M it was 144.23%; with K-562, 102.59%; in the assay with SK-MEL-28, 112.46%; with OVCAR-5 it was 112.27%; in the assay with LOX IMVI, 88.57%. In addition, the “Growth of Cells (%)” value in the assay with T-47D amounted to 73.92%; with UO-31, 103.75%; in the assay on HCT-116, 94.34%; in the assay on NCI-H522, 70.40%; with TK-10, 88.79%; in the assay with SF-539, 100.98%. The “Growth of Cells (%)” value came out at 74.36% in the assay on A549/ATCC, 101.28% with DU-145, 115.06% with HCC-2998 and 98.91% in the assay on HL-60(TB). Moreover, the 50% inhibitory concentration (IC50) in the assay with DU145 amounted to 323 ± 13.8 µM; in the assay with A375, 524 ± 22.3 µM; in assay [1], 476 µM; with CHO-K1, 237 ± 10.1 µM.

Consider `Fc1ccc(CNc2nc(C(F)(F)F)nc3c2sc(=S)n3-c2ccccc2)cc1` [Compound 4c], for which the “Growth of Cells (%)” value was determined as 106.31% in the assay with MALME-3M; 107.45% in the assay on K-562; 110.02% in the assay on SK-MEL-28; 102.72% with OVCAR-5; 109.59% in the assay with LOX IMVI; 85.37% in the assay on T-47D. The “Growth of Cells (%)” value with UO-31 came out at 82.87%; in the assay on HCT-116, 111.01%; in the assay on A498, 121.43%; with NCI-H522 it was 90.73%; in the assay on TK-10, 130.70%; in the assay with SF-539 it was 102.28%. For the same compound, the “Growth of Cells (%)” value in the assay on A549/ATCC worked out at 98.32%; in the assay on DU-145, 122.63%; in the assay with HCC-2998, 118.24%; in the assay on HL-60(TB), 93.41%. Moreover, the IC50 in the assay on DU145 came to 237 ± 10.3 µM; in the assay on A375 it was 507 ± 22.1 µM; in assay [1], 485 µM; in the assay with CHO-K1, 549 ± 24 µM.

The term IC50 denotes the concentration at which inhibition is half-maximal.
